This assay has as its target TRPV1 (Homo sapiens, UniProt Q8NER1). Put plainly: Calcium imaging (Fura-2 AM) in TRPV1-expressing HEK293 cells. The class given is cell-based. The conditions noted are these: compound alone, 5 μM.

Sequence of TRPV1 (Q8NER1 whole entry): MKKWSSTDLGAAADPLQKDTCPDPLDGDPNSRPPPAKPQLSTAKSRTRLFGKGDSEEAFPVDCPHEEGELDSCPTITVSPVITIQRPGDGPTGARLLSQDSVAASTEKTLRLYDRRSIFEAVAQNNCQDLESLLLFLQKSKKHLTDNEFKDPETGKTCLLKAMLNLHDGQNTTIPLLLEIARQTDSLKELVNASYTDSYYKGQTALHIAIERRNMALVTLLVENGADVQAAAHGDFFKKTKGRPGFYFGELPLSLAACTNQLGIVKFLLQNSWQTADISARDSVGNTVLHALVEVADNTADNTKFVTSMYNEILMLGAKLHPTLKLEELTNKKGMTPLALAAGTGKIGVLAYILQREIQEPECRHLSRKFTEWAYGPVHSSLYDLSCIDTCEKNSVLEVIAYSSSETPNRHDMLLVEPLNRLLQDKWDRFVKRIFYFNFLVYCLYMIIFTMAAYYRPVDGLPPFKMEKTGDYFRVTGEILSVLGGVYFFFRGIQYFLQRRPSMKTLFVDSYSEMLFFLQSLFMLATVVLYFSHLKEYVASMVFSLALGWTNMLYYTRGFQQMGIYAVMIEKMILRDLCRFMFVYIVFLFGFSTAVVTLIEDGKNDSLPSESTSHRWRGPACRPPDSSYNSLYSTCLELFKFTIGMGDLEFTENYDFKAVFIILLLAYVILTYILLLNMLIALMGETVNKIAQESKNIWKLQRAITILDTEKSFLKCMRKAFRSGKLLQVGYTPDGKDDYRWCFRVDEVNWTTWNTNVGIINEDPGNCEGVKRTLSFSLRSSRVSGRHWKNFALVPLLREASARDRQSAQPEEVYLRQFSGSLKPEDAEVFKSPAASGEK

Take `CCCCC/C=C\C/C=C\C/C=C\C/C=C\CCCC(=O)NCCO` [Anandamide]: the “Effect on intracellular calcium (Ca^2+) in TPRV1-expressing cells” value was “increases intracellular calcium”.

These data come from patent US12091389B2, “Pyrazolylbenzene-1,3-diols for diseases associated with g protein-coupled receptor 18 and in combination with transient receptor potential vanilloid 1” (Temple University—Of The Commonwealth System of Higher …, priority 2020, dated 2024).
